Literature values in paper PMC8559537 (ACS infectious diseases, 2021).

Tested on: nanoluciferase (Nluc) expressing C. parvum
Settings: positive control, 100 mg/kg

Compound: CCOc1ccc2cc(-c3nn(CC4CCN(C)CC4)c4ncnc(N)c34)ccc2n1 [BKI-1369]
- effect on infection in the IFN-γ KO mouse model: reduce infection quickly
